Where a SMILES comes first, the peptide text is derived from it. [ ]: non-standard residue; d: D form. The star is where a group is joined. NHCH2CH2OH = OCCN*; For = O=C*
Legend:
[1] = test system: Streptococcus pyogenes SSI-9; assay: Antibacterial activity assay of bead-derived peptides (three concentrations); assay type: cell-based; design: key: +++: inhibition by the 640-fold diluted peptide solution; ++: inhibition by the 160-fold diluted solution; +: inhibition by the 40-fold diluted solution; -: no inhibition; conditions: S. pyogenes, bead-derived peptide solution, three concentrations
Method in brief: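 Library peptide stock applied undiluted, 4-fold and 16-fold diluted in DMSO to S. pyogenes SSI-9 (2 × 10^5 CFU) in cation-adjusted Mueller Hinton broth with 5% laked horse blood. After 18 h at 37 °C, growth judged by visible cell precipitation.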

[2] = test system: P388 mouse leukemia cells; conditions: 92 h
Method in brief: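 P388 cells at 1 × 10^4 cells/mL (final) were exposed to library peptides (stocks diluted 250-fold in RPMI1640/10% FBS) for 92 h at 37 °C, 5% CO2. Viable cells were counted by WST-1/1-methoxy PMS (4 h), absorbance 415 nm, and expressed as cell viability (%).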

[3] = H+/Na+ transport assay of bead-derived peptides (one-point); assay type: biochemical; design: key: relative activity; mean of two control wells = 1.00; conditions: bead-derived peptide solution, EYPC/EYPG LUVs;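 note: relative to parent gramicidin A activity set to 1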
Method in brief: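 Values are normalized fluorescence, with Triton X-100 defining 100% and untreated LUVs 0%, and the two control wells averaging 1.00. Vesicles carried 1.0 mM pyranine and included egg yolk phosphatidylglycerol. Peptides were incubated with them 30 min at room temperature.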

Compound	antibacterial activity [1]	cell viability/% [2] [%]	H+/Na+ transport activity normalized against the value of 1 (1.00) [3]
CNC(=O)C[C@@H](NC(=O)[C@@H](NC(=O)[C@@H](CC(C)C)NC(=O)[C@H](C)NC(=O)[C@@H](CC(C)C)NC(=O)[C@H](C)NC(=O)CNC(=O)[C@@H](NC=O)C(C)C)C(C)C)C(=O)N[C@@H](Cc1c[nH]c2ccccc12)C(=O)N[C@H](CC(C)C)C(=O)N[C@@H](Cc1c[nH]c2ccccc12)C(=O)N[C@H](CC(C)C)C(=O)N[C@@H](Cc1c[nH]c2ccccc12)C(=O)N[C@@H](C(=O)N[C@@H](Cc1c[nH]c2ccccc12)C(=O)NCCO)[C@H](C)O [compound 3929] (For-VGA[dL]A[dL]V[dD](NHMe)W[dL]W[dL]W[dT]W-NHCH2CH2OH)	-	100.0	1.14
CC(C)C[C@@H](NC(=O)[C@H](C)NC(=O)CNC(=O)[C@@H](NC=O)C(C)C)C(=O)N[C@@H](C)C(=O)N[C@H](CC(C)C)C(=O)N[C@H](C(=O)N[C@@H](C(=O)N[C@@H](Cc1c[nH]c2ccccc12)C(=O)N[C@@H](C(=O)N[C@@H](Cc1c[nH]c2ccccc12)C(=O)N[C@@H](C(=O)N[C@@H](Cc1c[nH]c2ccccc12)C(=O)N[C@H](CC(C)C)C(=O)N[C@@H](Cc1c[nH]c2ccccc12)C(=O)NCCO)C(C)C)[C@H](C)O)C(C)C)C(C)C [compound 4031] (For-VGA[dL]A[dL]V[dV]W[dT]W[dV]W[dL]W-NHCH2CH2OH)	-	92.4	1.05
CNC(=O)C[C@@H](NC(=O)[C@@H](NC(=O)[C@H](NC(=O)[C@H](C)NC(=O)[C@H](NC(=O)[C@H](C)NC(=O)CNC(=O)[C@@H](NC=O)C(C)C)C(C)C)C(C)C)C(C)C)C(=O)N[C@@H](Cc1c[nH]c2ccccc12)C(=O)N[C@@H](C(=O)N[C@@H](Cc1c[nH]c2ccccc12)C(=O)N[C@H](CC(C)C)C(=O)N[C@@H](Cc1c[nH]c2ccccc12)C(=O)N[C@H](CC(C)C)C(=O)N[C@@H](Cc1c[nH]c2ccccc12)C(=O)NCCO)C(C)C [compound 4049] (For-VGA[dV]A[dV]V[dD](NHMe)W[dV]W[dL]W[dL]W-NHCH2CH2OH)	-	100.0	1.15
CC(C)C[C@@H](NC(=O)[C@H](C)NC(=O)[C@H](NC(=O)[C@H](C)NC(=O)CNC(=O)[C@@H](NC=O)C(C)C)C(C)C)C(=O)N[C@H](C(=O)N[C@@H](C(=O)N[C@@H](Cc1c[nH]c2ccccc12)C(=O)N[C@H](CC(C)C)C(=O)N[C@@H](Cc1c[nH]c2ccccc12)C(=O)N[C@@H](C(=O)N[C@@H](Cc1c[nH]c2ccccc12)C(=O)N[C@@H](C(=O)N[C@@H](Cc1c[nH]c2ccccc12)C(=O)NCCO)C(C)C)C(C)C)[C@H](C)O)C(C)C [compound 4126] (For-VGA[dV]A[dL]V[dT]W[dL]W[dV]W[dV]W-NHCH2CH2OH)	-	100.0	1.06
CC(C)C[C@@H](NC(=O)[C@H](C)NC(=O)CNC(=O)[C@@H](NC=O)C(C)C)C(=O)N[C@@H](C)C(=O)N[C@@H](C(=O)N[C@H](C(=O)N[C@H](CC(C)C)C(=O)N[C@@H](Cc1c[nH]c2ccccc12)C(=O)N[C@H](CC(C)C)C(=O)N[C@@H](Cc1c[nH]c2ccccc12)C(=O)N[C@@H](C(=O)N[C@@H](Cc1c[nH]c2ccccc12)C(=O)N[C@H](CC(C)C)C(=O)N[C@@H](Cc1c[nH]c2ccccc12)C(=O)NCCO)[C@H](C)O)C(C)C)C(C)C [compound 4128] (For-VGA[dL]A[dV]V[dL]W[dL]W[dT]W[dL]W-NHCH2CH2OH)	+	100.0	1.03
CC(C)C[C@@H](NC(=O)[C@H](Cc1c[nH]c2ccccc12)NC(=O)[C@H](NC(=O)[C@H](Cc1c[nH]c2ccccc12)NC(=O)[C@@H](CC(C)C)NC(=O)[C@@H](NC(=O)[C@H](NC(=O)[C@H](C)NC(=O)[C@H](NC(=O)[C@H](C)NC(=O)CNC(=O)[C@@H](NC=O)C(C)C)[C@H](C)O)C(C)C)C(C)C)C(C)C)C(=O)N[C@@H](Cc1c[nH]c2ccccc12)C(=O)N[C@@H](C(=O)N[C@@H](Cc1c[nH]c2ccccc12)C(=O)NCCO)C(C)C [compound 4187] (For-VGA[dT]A[dV]V[dL]W[dV]W[dL]W[dV]W-NHCH2CH2OH)	-	95.1	1.32
CC(C)C[C@@H](NC(=O)[C@H](C)NC(=O)[C@H](NC(=O)[C@H](C)NC(=O)CNC(=O)[C@@H](NC=O)C(C)C)C(C)C)C(=O)N[C@H](C(=O)N[C@H](CC(C)C)C(=O)N[C@@H](Cc1c[nH]c2ccccc12)C(=O)N[C@H](CC(C)C)C(=O)N[C@@H](Cc1c[nH]c2ccccc12)C(=O)N[C@@H](C(=O)N[C@@H](Cc1c[nH]c2ccccc12)C(=O)N[C@H](CC(C)C)C(=O)N[C@@H](Cc1c[nH]c2ccccc12)C(=O)NCCO)[C@H](C)O)C(C)C [compound 4209] (For-VGA[dV]A[dL]V[dL]W[dL]W[dT]W[dL]W-NHCH2CH2OH)	-	96.2	1.33
CC(C)C[C@@H](NC(=O)[C@H](C)NC(=O)[C@H](NC(=O)[C@H](C)NC(=O)CNC(=O)[C@@H](NC=O)C(C)C)C(C)C)C(=O)N[C@H](C(=O)N[C@H](CC(C)C)C(=O)N[C@@H](Cc1c[nH]c2ccccc12)C(=O)N[C@@H](C(=O)N[C@@H](Cc1c[nH]c2ccccc12)C(=O)N[C@H](CC(C)C)C(=O)N[C@@H](Cc1c[nH]c2ccccc12)C(=O)N[C@@H](C(=O)N[C@@H](Cc1c[nH]c2ccccc12)C(=O)NCCO)C(C)C)[C@H](C)O)C(C)C [compound 4232] (For-VGA[dV]A[dL]V[dL]W[dT]W[dL]W[dV]W-NHCH2CH2OH)	-	93.0	1.05
CC(C)C[C@@H](NC(=O)[C@H](Cc1c[nH]c2ccccc12)NC(=O)[C@@H](CC(C)C)NC(=O)[C@@H](NC(=O)[C@H](NC(=O)[C@H](C)NC(=O)[C@H](NC(=O)[C@H](C)NC(=O)CNC(=O)[C@@H](NC=O)C(C)C)[C@H](C)O)C(C)C)C(C)C)C(=O)N[C@@H](Cc1c[nH]c2ccccc12)C(=O)N[C@H](CC(C)C)C(=O)N[C@@H](Cc1c[nH]c2ccccc12)C(=O)N[C@@H](C(=O)N[C@@H](Cc1c[nH]c2ccccc12)C(=O)NCCO)C(C)C [compound 4236] (For-VGA[dT]A[dV]V[dL]W[dL]W[dL]W[dV]W-NHCH2CH2OH)	-	93.0	1.43
CC(C)C[C@@H](NC(=O)[C@H](C)NC(=O)CNC(=O)[C@@H](NC=O)C(C)C)C(=O)N[C@@H](C)C(=O)N[C@@H](C(=O)N[C@H](C(=O)N[C@@H](C(=O)N[C@@H](Cc1c[nH]c2ccccc12)C(=O)N[C@H](CC(C)C)C(=O)N[C@@H](Cc1c[nH]c2ccccc12)C(=O)N[C@@H](C(=O)N[C@@H](Cc1c[nH]c2ccccc12)C(=O)N[C@H](CC(C)C)C(=O)N[C@@H](Cc1c[nH]c2ccccc12)C(=O)NCCO)C(C)C)[C@H](C)O)C(C)C)C(C)C [compound 4279] (For-VGA[dL]A[dV]V[dT]W[dL]W[dV]W[dL]W-NHCH2CH2OH)	-	98.8	1.05
CC(C)C[C@@H](NC(=O)[C@H](C)NC(=O)CNC(=O)[C@@H](NC=O)C(C)C)C(=O)N[C@@H](C)C(=O)N[C@H](CC(C)C)C(=O)N[C@H](C(=O)N[C@@H](C(=O)N[C@@H](Cc1c[nH]c2ccccc12)C(=O)N[C@@H](C(=O)N[C@@H](Cc1c[nH]c2ccccc12)C(=O)N[C@H](CC(C)C)C(=O)N[C@@H](Cc1c[nH]c2ccccc12)C(=O)N[C@@H](C(=O)N[C@@H](Cc1c[nH]c2ccccc12)C(=O)NCCO)C(C)C)C(C)C)C(C)C)C(C)C [compound 4297] (For-VGA[dL]A[dL]V[dV]W[dV]W[dL]W[dV]W-NHCH2CH2OH)	+	2.3	1.29
CC(C)C[C@@H](NC(=O)[C@H](C)NC(=O)CNC(=O)[C@@H](NC=O)C(C)C)C(=O)N[C@@H](C)C(=O)N[C@H](CC(C)C)C(=O)N[C@H](C(=O)N[C@H](CC(C)C)C(=O)N[C@@H](Cc1c[nH]c2ccccc12)C(=O)N[C@H](CC(C)C)C(=O)N[C@@H](Cc1c[nH]c2ccccc12)C(=O)N[C@@H](C(=O)N[C@@H](Cc1c[nH]c2ccccc12)C(=O)N[C@@H](C(=O)N[C@@H](Cc1c[nH]c2ccccc12)C(=O)NCCO)C(C)C)C(C)C)C(C)C [compound 4313] (For-VGA[dL]A[dL]V[dL]W[dL]W[dV]W[dV]W-NHCH2CH2OH)	+	3.2	1.21
CC(C)C[C@@H](NC(=O)[C@H](Cc1c[nH]c2ccccc12)NC(=O)[C@@H](CC(C)C)NC(=O)[C@H](Cc1c[nH]c2ccccc12)NC(=O)[C@H](NC(=O)[C@H](Cc1c[nH]c2ccccc12)NC(=O)[C@@H](CC(C)C)NC(=O)[C@@H](NC(=O)[C@H](NC(=O)[C@H](C)NC(=O)[C@H](NC(=O)[C@H](C)NC(=O)CNC(=O)[C@@H](NC=O)C(C)C)C(C)C)C(C)C)C(C)C)C(C)C)C(=O)N[C@@H](Cc1c[nH]c2ccccc12)C(=O)NCCO [compound 4329] (For-VGA[dV]A[dV]V[dL]W[dV]W[dL]W[dL]W-NHCH2CH2OH)	-	14.3	1.18
